# Measurements taken from US20240400555A1 (Initial Therapeutics, Inc., priority 2023, published 2024).
# System: MV-4-11 cells
# Assay: Cell Viability Assay in MV-4-11 Cells
# Format: cell-based
# Conditions: Homo sapiens, MV4-11, 72 h, MV-4-11 cells, 72 h, Cell-Titer Glo; read-out: IC50
# Method in brief: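 Luminescent ATP read-out (CellTiter-Glo) after 72 h compound treatment of MV-4-11 leukaemia cells (7,000 per well, IMDM plus 10% FBS). Values expressed relative to DMSO control and derived by four-parameter non-linear regression.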
row,IC50 [nM],SMILES
1,81,"O=C(c1ccc(-n2nnc3cccnc32)cc1F)N(c1nccc2cc(/C=C/CO)ccc12)[C@@H]1CCCNC1 [Example 331, (R)-4-(3H-[1,2,3]triazolo[4,5-b]pyridin-3-yl)-2-fluoro-N-(6-(3-hydroxyprop-1-en-1-yl)isoquinolin-1-yl)-N-(piperidin-3-yl)benzamide]"
2,1000,"O=C(c1ccc(-n2nnc3cccnc32)cc1F)N(c1nccc2sc(-c3ccc(C(F)(F)F)nc3)cc12)[C@@H]1CCCNC1 [Example 454, 2-fluoro-N-[(3R)-3-piperidyl]-4-(triazolo[4,5-b]pyridin-3-yl)-N-[2-[6-(trifluoromethyl)-3-pyridyl]thieno[3,2-c]pyridin-4-yl]benzamide]"
3,290,"O=C(c1ccc(-n2nnc3cccnc32)cc1F)N(c1nccc2cc(-c3cc[nH]c(=O)c3)ccc12)[C@@H]1CCCNC1 [Example 440, (R)-4-(3H-[1,2,3]triazolo[4,5-b]pyridin-3-yl)-2-fluoro-N-(6-(2-oxo-1,2-dihydropyridin-4-yl)isoquinolin-1-yl)-N-(piperidin-3-yl)benzamide]"
4,170,"CCc1nnc(-c2ccc(C(=O)N(c3nccc4scc(C)c34)[C@@H]3CCCNC3)c(F)c2)s1 [Example 698, (R)-4-(5-ethyl-1,3,4-thiadiazol-2-yl)-2-fluoro-N-(3-methylthieno[3,2-c]pyridin-4-yl)-N-(piperidin-3-yl)benzamide]"
5,170,"Cc1csc2ccnc(N(C(=O)c3ccc(-c4cn(C)nn4)cc3Cl)[C@@H]3CCCNC3)c12 [Example 758, (R)-2-chloro-4-(1-methyl-1H-1,2,3-triazol-4-yl)-N-(3-methylthieno[3,2-c]pyridin-4-yl)-N-(piperidin-3-yl)benzamide]"
6,130,"Cc1nnc(-c2ccc(C(=O)N(c3nccc4scc(C)c34)[C@@H]3CCCNC3)c(F)c2)o1 [Example 699, (R)-2-fluoro-4-(5-methyl-1,3,4-oxadiazol-2-yl)-N-(3-methylthieno[3,2-c]pyridin-4-yl)-N-(piperidin-3-yl)benzamide]"
7,230,"O=C(c1ccc(-n2nnc3cccnc32)cc1F)N(c1nccc2ccccc12)[C@@H]1CCCNC1 [Example 313, (R)-4-(3H-[1,2,3]triazolo[4,5-b]pyridin-3-yl)-2-fluoro-N-(isoquinolin-1-yl)-N-(piperidin-3-yl)benzamide]"
8,110,"Cc1cccc2ccnc(N(C(=O)c3ccc(-c4nnc(CCC#N)s4)cc3F)[C@@H]3CCCNC3)c12 [Example 879, 4-[5-(2-cyanoethyl)-1,3,4-thiadiazol-2-yl]-2-fluoro-N-(8-methyl-1-isoquinolyl)-N-[(3R)-3-piperidyl]benzamide]"
9,300,"Cn1cc(-c2ccc(C(=O)N(c3nccc4sc(-c5cccnc5)cc34)[C@@H]3CCCNC3)c(F)c2)nn1 [Example 508, 2-fluoro-4-(1-methyltriazol-4-yl)-N-[(3R)-3-piperidyl]-N-[2-(3-pyridyl)thieno [3,2-c]pyridin-4-yl] benzamide]"
10,> 2000,"O=C(c1ccc(Nc2ncccn2)cc1F)N(c1nccc2cc(F)ccc12)[C@@H]1CCCNC1 [Example 591, (R)-2-fluoro-N-(6-fluoroisoquinolin-1-yl)-N-(piperidin-3-yl)-4-(pyrimidin-2-ylamino)benzamide]"
11,430,"Cn1cc(-c2ccc(C(=O)N(c3nccc4cc(-c5ccc(F)cc5)ccc34)[C@@H]3CCCNC3)c(F)c2)nn1 [Example 580, (R)-2-fluoro-N-(6-(4-fluorophenyl)isoquinolin-1-yl)-4-(1-methyl-1H-1,2,3-triazol-4-yl)-N-(piperidin-3-yl)benzamide]"
12,1300,"Cc1nnc(-c2ccc(C(=O)N(c3nccc4sc(C#CCCO)cc34)[C@@H]3CCCNC3)c(F)c2)s1 [Example 818, (R)-2-fluoro-N-(2-(4-hydroxybut-1-yn-1-yl)thieno[3,2-c]pyridin-4-yl)-4-(5-methyl-1,3,4-thiadiazol-2-yl)-N-(piperidin-3-yl)benzamide]"
13,110,"NC(=O)Cc1ccc(-c2cc3c(N(C(=O)c4ccc(-n5nnc6cccnc65)cc4F)[C@@H]4CCCNC4)nccc3s2)cc1 [Example 570, N-[2-[4-(2-amino-2-oxo-ethyl)phenyl]thieno[3,2-c]pyridin-4-yl]-2-fluoro-N-[(3R)-3-piperidyl]-4-(triazolo[4,5-b]pyridin-3-yl)benzamide]"
14,140,"Cc1nnc(-c2ccc(C(=O)N(c3nccc4cccc(C)c34)[C@@H]3CCCNC3)c(F)c2)o1 [Example 394, (R)-2-fluoro-4-(5-methyl-1,3,4-oxadiazol-2-yl)-N-(8-methylisoquinolin-1-yl)-N-(piperidin-3-yl)benzamide]"
15,460,"CC(C)(O)c1cccc(-c2cc3c(N(C(=O)c4ccc(-n5nnc6cccnc65)cc4F)[C@@H]4CCCNC4)nccc3s2)c1 [Example 602, (R)-4-(3H-[1,2,3]triazolo[4,5-b]pyridin-3-yl)-2-fluoro-N-(2-(3-(2-hydroxypropan-2-yl)phenyl)thieno[3,2-c]pyridin-4-yl)-N-(piperidin-3-yl)benzamide]"
16,600,"O=C(c1ccc(-n2nnc3cccnc32)cc1F)N(c1nccc2sc(C#CCCCO)cc12)[C@@H]1CCCNC1 [Example 844, (R)-4-(3H-[1,2,3]triazolo[4,5-b]pyridin-3-yl)-2-fluoro-N-(2-(5-hydroxypent-1-yn-1-yl)thieno[3,2-c]pyridin-4-yl)-N-(piperidin-3-yl)benzamide]"

# More lines, now with the values behind:
row,SMILES,IC50 [nM]
1,"Cc1cccc2ccnc(N(C(=O)c3ccc(Nc4nccc(N5CCC[C@@H](O)C5)n4)cc3F)[C@@H]3CCCNC3)c12 [Example 623, 2-fluoro-4-((4-((R)-3-hydroxypiperidin-1-yl)pyrimidin-2-yl)amino)-N-(8-methylisoquinolin-1-yl)-N—((R)-piperidin-3-yl)benzamide]",30
2,"Cc1nnc(-c2ccc(C(=O)N(c3nccc4cc(Cl)cc(C)c34)[C@@H]3CCCNC3)c(F)c2)o1 [Example 765, (R)—N-(6-chloro-8-methylisoquinolin-1-yl)-2-fluoro-4-(5-methyl-1,3,4-oxadiazol-2-yl)-N-(piperidin-3-yl)benzamide]",86
3,"COCCn1nc(C)cc1-c1ccc(C(=O)N(c2nccc3cc(F)cc(C)c23)[C@@H]2CCCNC2)nc1 [Example 729, (R)—N-(6-fluoro-8-methylisoquinolin-1-yl)-5-(1-(2-methoxyethyl)-3-methyl-1H-pyrazol-5-yl)-N-(piperidin-3-yl)picolinamide]",> 6500
4,"CCc1nnc(-c2ccc(C(=O)N(c3nccc4cc(Cl)cc(C)c34)[C@@H]3CCCNC3)nc2)s1 [Example 730, (R)—N-(6-chloro-8-methylisoquinolin-1-yl)-5-(5-ethyl-1,3,4-thiadiazol-2-yl)-N-(piperidin-3-yl)picolinamide]",260
5,"Cn1cc(-c2ccc(C(=O)N(c3nccc4sc(C#CCCCO)cc34)[C@@H]3CCCNC3)cc2O)cn1 [Example 476, 3-hydroxy-N-[2-(5-hydroxypent-1-ynyl)thieno[3,2-c]pyridin-4-yl]-4-(1-methylpyrazol-4-yl)-N-[(3R)-3-piperidyl] benzamide]",220
6,"Cc1nnc(-c2ccc(C(=O)N(c3nccc4c(Cl)ccc(C)c34)[C@@H]3CCCNC3)cc2)s1 [Example 856, N-(5-chloro-8-methyl-1-isoquinolyl)-4-(5-methyl-1,3,4-thiadiazol-2-yl)-N-[(3R)-3-piperidyl]benzamide]",260
7,"Cc1cccc2ccnc(N(C(=O)c3ccc(C#N)c(-c4ccc(-c5cccnc5)cc4)c3)[C@@H]3CCCNC3)c12 [Example 328, 4-cyano-N-(8-methyl-1-isoquinolyl)-N-[(3R)-3-piperidyl]-3-[4-(3-pyridyl)phenyl]benzamide]",210
8,"Cc1cccc2ccnc(N(C(=O)c3ccc(-n4nnc5cccnc54)cc3Cl)[C@@H]3CCCNC3)c12 [Example 310, (R)-4-(3H-[1,2,3]triazolo[4,5-b]pyridin-3-yl)-2-chloro-N-(8-methylisoquinolin-1-yl)-N-(piperidin-3-yl) benzamide]",28
9,"Cc1nnc(-c2ccc(C(=O)N(c3nccc4cc(Cl)cc(C)c34)[C@@H]3CCCNC3)nc2)s1 [Example 801, (R)—N-(6-chloro-8-methylisoquinolin-1-yl)-5-(5-methyl-1,3,4-thiadiazol-2-yl)-N-(piperidin-3-yl)picolinamide]",140
10,"Cc1cccc2ccnc(N(C(=O)c3cccc(C#CCCC(=O)NC(C)CO)c3)[C@@H]3CCCNC3)c12 (stereo partly drawn) [Example 520, 3-(5-((1-hydroxypropan-2-yl)amino)-5-oxopent-1-yn-1-yl)-N-(8-methylisoquinolin-1-yl)-N—((R)-piperidin-3-yl)benzamide]",1700
11,"Cc1cccc2ccnc(N(C(=O)c3ccc(Nc4nccc(N5CCS(=O)(=O)CC5)n4)cc3F)[C@@H]3CCCNC3)c12 [Example 935, (R)-4-((4-(1,1-dioxidothiomorpholino)pyrimidin-2-yl)amino)-2-fluoro-N-(8-methylisoquinolin-1-yl)-N-(piperidin-3-yl)benzamide]",63
12,"Cc1cccc2ccnc(N(C(=O)c3ccc(Nc4ncnc(-c5ccccc5)n4)cc3F)[C@@H]3CCCNC3)c12 [Example 971, (R)-2-fluoro-N-(8-methylisoquinolin-1-yl)-4-(4-phenyl-1,3,5-triazin-2-ylamino)-N-(piperidin-3-yl)benzamide]",107
13,"Cc1cc(Cl)cc2ccnc(N(C(=O)c3ccc(-c4nnn(C)c4CO)cc3F)[C@@H]3CCCNC3)c12 [Example 618, (R)—N-(6-chloro-8-methylisoquinolin-1-yl)-2-fluoro-4-(5-(hydroxymethyl)-1-methyl-1H-1,2,3-triazol-4-yl)-N-(piperidin-3-yl)benzamide]",53
14,"Cc1cccc2ccnc(N(C(=O)c3ccc(Nc4nccc(N5CCCCC5)n4)cc3F)[C@@H]3CCCNC3)c12 [Example 578, (R)-2-fluoro-N-(8-methylisoquinolin-1-yl)-4-((4-(piperidin-1-yl)pyrimidin-2-yl)amino)-N-(piperidin-3-yl)benzamide]",45
15,"Cc1cccc2ccnc(N(C(=O)c3ccc(C#N)cc3-c3ccccn3)[C@@H]3CCCNC3)c12 [Example 335, 4-cyano-N-(8-methyl-1-isoquinolyl)-N-[(3R)-3-piperidyl]-2-(2-pyridyl)benzamide]",2600
